Source: BindingDB's records for doi:10.1016/j.ejmech.2021.113362 (The First Affiliated Hospital of Wenzhou Medical University, 2021)

These molecules were tested against Signal transducer and activator of transcription 3 (Homo sapiens, UniProt P40763) (assay: Inhibition of STAT3 phosphorylation in human MDA-MB-231 cells by sandwich ELISA).
Sequence of Signal transducer and activator of transcription 3 (P40763 whole entry): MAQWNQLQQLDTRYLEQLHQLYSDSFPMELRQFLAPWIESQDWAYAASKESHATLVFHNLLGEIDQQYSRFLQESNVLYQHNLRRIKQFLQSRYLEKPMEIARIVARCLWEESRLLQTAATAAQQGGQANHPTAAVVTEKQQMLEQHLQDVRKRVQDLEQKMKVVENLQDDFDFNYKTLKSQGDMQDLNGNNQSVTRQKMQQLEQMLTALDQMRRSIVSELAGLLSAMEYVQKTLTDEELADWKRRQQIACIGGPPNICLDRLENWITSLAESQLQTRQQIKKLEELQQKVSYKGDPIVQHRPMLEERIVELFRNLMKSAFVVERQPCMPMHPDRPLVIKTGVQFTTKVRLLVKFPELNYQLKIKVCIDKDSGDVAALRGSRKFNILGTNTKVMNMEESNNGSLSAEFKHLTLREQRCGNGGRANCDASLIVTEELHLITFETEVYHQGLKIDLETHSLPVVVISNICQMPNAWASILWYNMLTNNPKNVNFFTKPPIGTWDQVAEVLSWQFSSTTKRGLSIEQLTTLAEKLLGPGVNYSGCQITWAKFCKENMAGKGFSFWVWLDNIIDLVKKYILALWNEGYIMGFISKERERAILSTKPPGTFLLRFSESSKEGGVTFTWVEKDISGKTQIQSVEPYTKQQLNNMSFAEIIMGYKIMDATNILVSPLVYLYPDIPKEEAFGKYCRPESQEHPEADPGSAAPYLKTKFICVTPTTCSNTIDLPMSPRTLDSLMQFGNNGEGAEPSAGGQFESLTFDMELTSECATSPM

IC50	Compound
920 nM	CC(C)(C)OC(=O)c1ccc(NC(=O)c2cccc(S(N)(=O)=O)c2)cc1
720 nM	COc1cc(NC(=O)c2ccc(Cl)c(S(N)(=O)=O)c2)cc(OC)c1OC
230 nM	CC(C)(C)OC(=O)c1ccc(NC(=O)c2ccc(Cl)c(S(N)(=O)=O)c2)cc1
210 nM	O=C(Nc1ccc([N+](=O)[O-])cc1Cl)c1cc(Cl)ccc1O [5-chloro-N-(2-chloro-4-nitrophenyl)-2-hydroxybenzamide]
